Assay results as given in publication PMC5341858, “Molecular regulation of apoptotic machinery and lipid metabolism by mTORC1/mTORC2 dual inhibitors in preclinical models of HER2+/PIK3CAmut breast cancer” (Oncotarget, 2016).

Columns and labels:
MDA-MB-231 cells = experiment: Glucose-to-lipid conversion (de novo lipid synthesis); assay type: cell-based; conditions: similar treatment, 4 h saturating dose
Experimental: (§1) Cellular glucose-to-lipid conversion was measured as described. Briefly, cells were pretreated with inhibitors for 2 h, incubated for 2 h in medium containing 2 μCi/mL D-[1-14C] glucose (PerkinElmer, NEC043X001MC). Total lipids were extracted twice with 300 μL hexane:isopropanol (3:2; vol:vol). Cell debris was carefully removed by centrifugation at 14,000 rpm for 5 min using a microcentrifuge. Radioactive lipids were dried, redissolved with 100 μL of chloroform and determined by liquid scintillation counting. A duplicate assay plate without radioactive glucose label was used to count the number of cells per treatment. Glucose to total lipid conversion rate is the radioactive counts from the extracted lipid normalized by the number of cells per hour of ^14C-glucose incubation. For acetyl-CoA assay, cells grown in 96-well plates were washed and lysed in 40 μL/well using lysis buffer. Cell lysates were transferred to V-bottom plates, cleared by centrifugation. 30 μL of the cleared cell lysates were subjected to acetyl-CoA measurement using an acetyl-CoA assay kit (Sigma, MAK-039) following manufacturer's assay manual. Duplicate assay plates were used to count the number of cells per treatment for normalization in determining cellular acetyl-CoA levels.

MDA-MB-453 cells [1] = experiment: as above; assay type: cell-based; conditions: 4 h, saturating dose (5 μM MTI-31, 1 μM rapamycin)
Experimental: as §1

[2] = tested on: MDA-MB-453 and 786-O tumors; experiment: In vivo antitumor efficacy, oral once daily
Experimental: (§2) Animal studies were performed under protocols approved by Institutional Animal Care and Use Committee (IACUC) of Fudan University. Balbc female nude mice bearing MDA-MB-453, HCC1806 or 786-O tumors were staged at initial tumor volume of 150-200 mm^3 and randomized into treatment groups (n=/>8). […] Lapatinib and Sunitinib were formulated in 0.5% hydroxypropyl methyl cellulose (HPMC)-0.2% tween-80 as homogeneous suspension. All test agents were prepared twice weekly. Mice were dosed orally once daily (qd). Tumor growth inhibition rate (TGI) was calculated: TGI=[1-(Vt-Vi)/(Vc-Vi)]×100, where Vt: tumor volume of drug treated group, Vc: tumor volume of vehicle control group, Vi: initial tumor volume at staging. For biomarker studies, frozen tumors were made lysates and immunoblotted as previously described. For detecting apoptosis, tumors were excised, fixed in 4% formalin for 24 h and embedded in paraffin. Slides were processed for terminal deoxynuleotidyl transferase dUTP nick end labeling (TUNEL) using an assay kit (KeyGen Biotech, KGA7061) following vendor's instruction manual. For IHC staining, tumor slides described above were deparaffinized, rehydrated and permeablized with 1% Triton X-100. Antigens were retrieved with Tris/EDTA (pH 9.0) under microwave heating for 20 min. The slides were blocked in Tris buffered saline with 5% BSA-0.3 M glycine and reacted with anti-CPT1A (Proteintech #15184-1-AP) or anti-P-ACL S455 (Abcam #59297) and detected with peroxidase-conjugated secondary antibody (Jackson # 111-035-003). Images were acquired using Leica microscope (model DMI4000D). Staining levels were analyzed on the basis of mean optical density quantified by software image pro plus 6.0.

[3] = tested on: P-S6 and P-AKT in MDA-MB-453 tumors; experiment: mTOR biomarkers in tumor tissue (immunoblot); assay type: in vivo, mice
Experimental: as §2, with “Slides were processed for terminal deoxynuleotidyl transferase dUTP nick end labeling (TUNEL) using an assay kit (KeyGen Biotech, KGA7061) following vendor's instruction manual. For IHC staining, tumor slides described above were deparaffinized, rehydrated and permeablized with 1% Triton X-100. Antigens were retrieved with Tris/EDTA (pH 9.0) under microwave heating for 20 min.” left out, “Images were acquired using Leica microscope (model DMI4000D).” left out

[4] = tested on: HER2-/PIK3CAwt HCC1806 breast tumor model; experiment: In vivo antitumor efficacy, oral once daily; design: species or system mice; conditions: HCC1806 tumors; even at the highest 40 mg/kg oral qd
Experimental: as §2, with “Slides were processed for terminal deoxynuleotidyl transferase dUTP nick end labeling (TUNEL) using an assay kit (KeyGen Biotech, KGA7061) following vendor's instruction manual. For IHC staining, tumor slides described above were deparaffinized, rehydrated and permeablized with 1% Triton X-100. Antigens were retrieved with Tris/EDTA (pH 9.0) under microwave heating for 20 min.” left out, “Images were acquired using Leica microscope (model DMI4000D).” left out

MDA-MB-453 cells [5] = experiment: Total cellular acetyl-CoA level; assay type: cell-based; conditions: 24 h
Experimental: as §1

GSK3B = biological target: T1, GSK3B (Homo sapiens, UniProt P49841); experiment: KINOMEscan binding assay; conditions: 1000 nM, percent control relative to vehicle
T1 construct: purchased DiscoveRx KINOMEscan
Source text: (§3) IC50 values were generated using Graphpad PRISM 5 software.

VEGFR2 = biological target: T2, VEGFR2 (Homo sapiens, UniProt P35968); experiment: KINOMEscan binding assay; conditions: 1000 nM, percent control relative to vehicle
T2 construct: purchased DiscoveRx KINOMEscan
Source text: as §3

BMPR2 = biological target: T3, BMPR2 (Homo sapiens, UniProt Q13873); experiment: KINOMEscan binding assay; conditions: 1000 nM, percent control relative to vehicle
T3 construct: purchased DiscoveRx KINOMEscan
Source text: as §3

MKNK2 = biological target: T4, MKNK2 (Homo sapiens, UniProt Q9HBH9); experiment: KINOMEscan binding assay; conditions: 1000 nM, percent control relative to vehicle
T4 construct: purchased DiscoveRx KINOMEscan
Source text: as §3

PIK3CG = PIK3CG (Homo sapiens, UniProt P48736); experiment: KINOMEscan binding assay
Source text: as §3

FGFR2 = biological target: T5, FGFR2 (Homo sapiens, UniProt P21802); experiment: KINOMEscan binding assay; conditions: 1000 nM, percent control relative to vehicle
T5 construct: purchased DiscoveRx KINOMEscan
Source text: as §3

YANK3 = biological target: T6, YANK3 (Homo sapiens, UniProt Q86UX6); experiment: KINOMEscan binding assay; conditions: 1000 nM, percent control relative to vehicle
T6 construct: purchased DiscoveRx KINOMEscan
Source text: as §3

PIK3CA = PIK3CA (Homo sapiens, UniProt P42336); experiment: KINOMEscan binding assay
Source text: as §3

MKNK1 = biological target: T7, MKNK1 (Homo sapiens, UniProt Q9BUB5); experiment: KINOMEscan binding assay; conditions: 1000 nM, percent control relative to vehicle
T7 construct: purchased DiscoveRx KINOMEscan
Source text: as §3

PDGFRA = biological target: T8, PDGFRA (Homo sapiens, UniProt P16234); experiment: KINOMEscan binding assay; conditions: 1000 nM, percent control relative to vehicle
T8 construct: purchased DiscoveRx KINOMEscan
Source text: as §3

AURKA = biological target: T9, AURKA (Homo sapiens, UniProt O14965); experiment: KINOMEscan binding assay; conditions: 1000 nM, percent control relative to vehicle
T9 construct: purchased DiscoveRx KINOMEscan
Source text: as §3

PKAC-alpha = biological target: T10, PKAC-alpha (Homo sapiens, UniProt P17612); experiment: KINOMEscan binding assay; conditions: 1000 nM, percent control relative to vehicle
T10 construct: purchased DiscoveRx KINOMEscan
Source text: as §3

[6] = tested on: mTORC1 substrates P-S6K1(T389), P-S6(S235/6), P-4EBP1(T70) and mTORC2 substrate P-AKT(S473) in 786-O, U87MG and MDA-MB-453 cells; experiment: Immunoblotting of mTORC1 and mTORC2 biomarkers in tumor cells; assay type: cell-based
Experimental: For standard assay of inhibitor effects on cellular biomarker expression, cells were plated at pre-determined density in 6-well or 12-well culture plates for overnight, treated with inhibitors for the indicated doses and times. Cells were lysed in NuPAGE-LDS lysis buffer (Invitrogen) and immunoblotted with antibodies including P-S6K1(T389), S6, P-4EBP1(T70), 4EBP1, P-GSK3(S21/9), GSK3, cyclin D1, Raptor, Rictor, P-ACL(S455), ACL, cleaved-PARP (Cell Signaling Technology); P-S6(S235/6), AKT(S473), AKT, Bim (Abcam-Epitomics); c-Myc (Santa Cruz); Mcl-1 (Affinity); CPT1A (Proteintech); β-actin and GAPDH (Bioworld).

[7] = 1000 nM, percent control relative to vehicle

PIK3CA, sequence (P42336 whole entry): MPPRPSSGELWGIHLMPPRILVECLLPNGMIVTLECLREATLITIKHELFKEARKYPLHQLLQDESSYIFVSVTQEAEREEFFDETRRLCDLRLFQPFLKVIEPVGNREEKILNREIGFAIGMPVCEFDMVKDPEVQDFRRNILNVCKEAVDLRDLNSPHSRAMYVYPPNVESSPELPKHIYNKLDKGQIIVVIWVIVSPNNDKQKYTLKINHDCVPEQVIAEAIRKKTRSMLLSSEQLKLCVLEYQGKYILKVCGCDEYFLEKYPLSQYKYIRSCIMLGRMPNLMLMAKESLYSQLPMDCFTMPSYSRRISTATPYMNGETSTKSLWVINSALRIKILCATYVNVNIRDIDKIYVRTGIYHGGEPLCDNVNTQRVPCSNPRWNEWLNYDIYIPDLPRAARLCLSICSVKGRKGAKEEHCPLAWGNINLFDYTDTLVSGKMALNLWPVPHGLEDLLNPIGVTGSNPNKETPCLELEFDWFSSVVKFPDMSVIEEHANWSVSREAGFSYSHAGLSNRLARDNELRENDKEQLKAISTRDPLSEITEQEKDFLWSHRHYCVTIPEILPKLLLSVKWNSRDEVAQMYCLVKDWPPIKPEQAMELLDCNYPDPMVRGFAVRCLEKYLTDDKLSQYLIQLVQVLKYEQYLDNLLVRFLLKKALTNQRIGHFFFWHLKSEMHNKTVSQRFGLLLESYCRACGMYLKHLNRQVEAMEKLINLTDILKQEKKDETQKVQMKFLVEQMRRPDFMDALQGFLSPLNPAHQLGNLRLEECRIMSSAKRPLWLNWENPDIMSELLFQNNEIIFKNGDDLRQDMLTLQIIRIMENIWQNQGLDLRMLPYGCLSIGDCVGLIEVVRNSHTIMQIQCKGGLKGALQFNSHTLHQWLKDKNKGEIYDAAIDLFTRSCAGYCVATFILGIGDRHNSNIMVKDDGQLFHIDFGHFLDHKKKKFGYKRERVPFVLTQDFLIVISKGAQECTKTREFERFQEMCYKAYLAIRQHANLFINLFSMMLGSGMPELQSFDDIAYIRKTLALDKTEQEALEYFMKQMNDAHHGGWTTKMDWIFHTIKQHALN
PIK3CG, sequence (P48736 whole entry): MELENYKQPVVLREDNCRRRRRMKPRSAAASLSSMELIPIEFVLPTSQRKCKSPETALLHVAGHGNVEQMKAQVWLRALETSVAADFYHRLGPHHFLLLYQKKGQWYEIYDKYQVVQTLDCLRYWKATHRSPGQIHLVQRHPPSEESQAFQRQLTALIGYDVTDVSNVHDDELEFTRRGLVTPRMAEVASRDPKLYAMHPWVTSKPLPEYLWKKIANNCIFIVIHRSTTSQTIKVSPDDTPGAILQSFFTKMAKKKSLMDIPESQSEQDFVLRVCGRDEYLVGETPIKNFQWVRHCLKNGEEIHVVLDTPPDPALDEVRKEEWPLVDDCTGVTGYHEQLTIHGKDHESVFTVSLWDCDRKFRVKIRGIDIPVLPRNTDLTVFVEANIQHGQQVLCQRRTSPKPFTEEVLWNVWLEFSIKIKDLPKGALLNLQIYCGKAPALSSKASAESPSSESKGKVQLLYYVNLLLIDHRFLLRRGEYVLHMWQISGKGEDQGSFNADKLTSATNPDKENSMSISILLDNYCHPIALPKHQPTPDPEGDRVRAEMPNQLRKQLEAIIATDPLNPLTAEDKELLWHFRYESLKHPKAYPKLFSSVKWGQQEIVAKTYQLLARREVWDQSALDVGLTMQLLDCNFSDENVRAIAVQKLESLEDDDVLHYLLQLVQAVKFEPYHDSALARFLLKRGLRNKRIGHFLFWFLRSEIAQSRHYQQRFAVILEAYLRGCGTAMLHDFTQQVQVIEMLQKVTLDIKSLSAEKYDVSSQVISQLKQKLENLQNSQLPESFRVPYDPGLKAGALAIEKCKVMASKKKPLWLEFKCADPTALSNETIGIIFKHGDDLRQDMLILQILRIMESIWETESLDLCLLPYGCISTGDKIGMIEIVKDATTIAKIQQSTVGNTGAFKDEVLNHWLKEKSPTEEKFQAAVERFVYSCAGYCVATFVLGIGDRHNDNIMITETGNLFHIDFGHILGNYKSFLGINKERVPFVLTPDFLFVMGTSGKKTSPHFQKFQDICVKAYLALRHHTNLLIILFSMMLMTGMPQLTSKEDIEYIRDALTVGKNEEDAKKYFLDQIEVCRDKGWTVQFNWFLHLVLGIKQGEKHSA
T7 sequence (Q9BUB5 whole entry): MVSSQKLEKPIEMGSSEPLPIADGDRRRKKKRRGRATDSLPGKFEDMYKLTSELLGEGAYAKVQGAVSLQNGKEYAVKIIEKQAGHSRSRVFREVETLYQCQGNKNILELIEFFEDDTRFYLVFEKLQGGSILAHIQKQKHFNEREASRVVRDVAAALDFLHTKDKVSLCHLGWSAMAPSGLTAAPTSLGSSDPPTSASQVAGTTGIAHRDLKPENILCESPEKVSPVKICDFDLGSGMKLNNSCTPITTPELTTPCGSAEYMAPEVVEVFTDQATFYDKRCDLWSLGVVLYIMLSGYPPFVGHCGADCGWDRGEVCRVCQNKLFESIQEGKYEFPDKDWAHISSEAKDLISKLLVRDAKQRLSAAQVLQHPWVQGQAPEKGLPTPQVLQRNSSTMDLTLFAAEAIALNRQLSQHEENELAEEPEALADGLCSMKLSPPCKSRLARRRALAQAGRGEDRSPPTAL
T9 sequence (O14965 whole entry): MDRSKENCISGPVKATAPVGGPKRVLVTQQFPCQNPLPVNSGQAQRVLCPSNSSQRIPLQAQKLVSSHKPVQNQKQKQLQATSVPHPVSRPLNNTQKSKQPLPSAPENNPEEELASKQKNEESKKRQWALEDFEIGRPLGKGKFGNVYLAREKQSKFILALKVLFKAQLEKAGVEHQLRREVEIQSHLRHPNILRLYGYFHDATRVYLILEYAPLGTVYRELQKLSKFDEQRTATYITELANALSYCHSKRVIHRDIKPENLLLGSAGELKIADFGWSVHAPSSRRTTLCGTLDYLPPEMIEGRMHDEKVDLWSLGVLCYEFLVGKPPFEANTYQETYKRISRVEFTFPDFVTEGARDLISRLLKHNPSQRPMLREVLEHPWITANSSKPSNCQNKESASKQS
T5 sequence (P21802 22-821): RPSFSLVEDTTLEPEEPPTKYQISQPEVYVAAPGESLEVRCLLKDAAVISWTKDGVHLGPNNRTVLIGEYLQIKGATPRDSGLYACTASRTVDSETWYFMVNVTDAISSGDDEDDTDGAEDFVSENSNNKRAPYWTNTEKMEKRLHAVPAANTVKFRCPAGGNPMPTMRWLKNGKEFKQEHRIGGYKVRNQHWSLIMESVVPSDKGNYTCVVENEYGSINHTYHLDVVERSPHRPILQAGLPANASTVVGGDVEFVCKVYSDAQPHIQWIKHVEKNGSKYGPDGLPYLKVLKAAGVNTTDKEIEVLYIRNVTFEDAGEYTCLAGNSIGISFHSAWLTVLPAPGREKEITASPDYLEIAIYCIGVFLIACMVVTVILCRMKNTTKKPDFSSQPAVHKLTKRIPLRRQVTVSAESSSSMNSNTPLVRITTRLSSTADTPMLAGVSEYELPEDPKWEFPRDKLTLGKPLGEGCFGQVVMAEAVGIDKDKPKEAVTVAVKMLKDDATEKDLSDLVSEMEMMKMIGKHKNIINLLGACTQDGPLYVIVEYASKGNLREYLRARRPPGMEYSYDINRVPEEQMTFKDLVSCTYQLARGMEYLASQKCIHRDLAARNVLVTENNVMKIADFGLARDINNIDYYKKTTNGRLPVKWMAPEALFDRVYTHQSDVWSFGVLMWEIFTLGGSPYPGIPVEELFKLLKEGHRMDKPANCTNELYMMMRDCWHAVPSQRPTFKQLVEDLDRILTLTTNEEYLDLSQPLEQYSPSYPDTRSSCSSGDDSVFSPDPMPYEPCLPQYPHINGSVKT
T6 sequence (Q86UX6 whole entry): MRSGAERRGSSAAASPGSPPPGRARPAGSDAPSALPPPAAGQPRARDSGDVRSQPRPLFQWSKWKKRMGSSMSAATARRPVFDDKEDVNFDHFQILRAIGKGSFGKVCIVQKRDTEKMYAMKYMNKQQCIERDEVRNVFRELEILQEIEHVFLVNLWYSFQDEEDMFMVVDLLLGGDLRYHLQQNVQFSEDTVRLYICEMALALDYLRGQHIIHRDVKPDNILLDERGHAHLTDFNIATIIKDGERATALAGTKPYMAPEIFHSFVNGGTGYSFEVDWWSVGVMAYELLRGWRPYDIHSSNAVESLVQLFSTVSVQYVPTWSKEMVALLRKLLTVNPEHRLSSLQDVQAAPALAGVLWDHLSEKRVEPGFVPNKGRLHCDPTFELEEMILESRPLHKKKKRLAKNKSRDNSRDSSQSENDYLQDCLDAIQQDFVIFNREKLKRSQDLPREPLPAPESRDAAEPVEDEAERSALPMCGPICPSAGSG
T1 sequence (P49841 whole entry): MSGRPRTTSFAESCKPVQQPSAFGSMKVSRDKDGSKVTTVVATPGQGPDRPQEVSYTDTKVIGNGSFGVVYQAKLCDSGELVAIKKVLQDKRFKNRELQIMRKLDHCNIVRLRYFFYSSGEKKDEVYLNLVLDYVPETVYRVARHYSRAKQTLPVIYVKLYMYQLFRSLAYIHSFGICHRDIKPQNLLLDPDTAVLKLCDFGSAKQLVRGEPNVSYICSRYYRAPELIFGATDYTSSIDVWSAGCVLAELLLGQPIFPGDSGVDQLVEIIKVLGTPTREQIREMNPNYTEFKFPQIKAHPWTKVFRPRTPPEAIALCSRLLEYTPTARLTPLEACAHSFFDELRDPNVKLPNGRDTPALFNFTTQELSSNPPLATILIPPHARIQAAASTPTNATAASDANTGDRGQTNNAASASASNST

CNC(=O)c1cccc(-c2ccc3c(N4C5CCC4COC5)nc(N4CCOC[C@@H]4C)nc3n2)c1 [MTI-31]
effect on de novo lipid synthesis (MDA-MB-231 cells): did not significantly reduce lipid synthesis
suppression of de novo lipid synthesis (14C-glucose-to-lipid conversion rate) (MDA-MB-453 cells [1]): 70%
tumor growth inhibition (TGI) at MED ([2]; 5 mg/kg oral qd, p<0.01): > 50%
body weight loss at MTD ([2]; 40 mg/kg oral qd, without mortality): 7-15%
tumor response, large size tumors ([2]; nude mice bearing large size MDA-MB-453 tumors, 40 mg/kg qd): rapid and dramatic tumor regression
minimum efficacious dose (MED) ([2]; oral, qd, nude mice, MDA-MB-453 and 786-O models): 5 mg/kg
maximum tolerated dose (MTD) ([2]; oral, qd, nude mice, without mortality): 40 mg/kg
P-S6 and P-AKT levels in tumor tissue ([3]; 5 mg/kg oral qd): significantly reduced
P-S6 and P-AKT levels in tumor tissue ([3]; 10 mg/kg oral qd): nearly complete suppression
antitumor efficacy [4]: limited efficacy
reduction in acetyl-CoA (MDA-MB-453 cells [5]): 67%
% Control (GSK3B): 56%
% Control (VEGFR2): 98%
% Control (BMPR2): 88%
% Control (MKNK2): 100%
Kd (PIK3CG): > 1000 nM
% Control (PIK3CG; [7]): 100%
% Control (FGFR2): 100%
% Control (YANK3): 85%
Kd (PIK3CA): > 1000 nM
% Control (PIK3CA; [7]): 100%
% Control (MKNK1): 90%
% Control (PDGFRA): 93%
% Control (AURKA): 97%
% Control (PKAC-alpha): 98%
IC50 ([6]; read-out: concentration achieving 50% inhibition of mTORC1 and mTORC2 substrates, 786-O, U87MG and MDA-MB-453 cells, 6 h treatment): ≤ 120 nM
EC50 ([6]; several relevant tumor models (cells), read-out: EC50, inhibition of mTORC1/mTORC2 signaling): ≤ 120 nM
